Literature values, collected in Sander's compilation of Henry's law constants.

Experiment: Henry solubility constant Hcp at 298.15 K (mol/(m3 Pa))
Details: cited value
[1] = reference: Barcelo and Hennion (1997)
[2] = reference: Burkholder et al. (2015)
[3] = reference: Burkholder et al. (2019)
[4] = reference: Sander et al. (2011)
[5] = reference: Sander et al. (2006)
[6] = reference: Fogg and Sangster (2003)
[7] = reference: Plyasunov et al. (2006)
[8] = reference: Hine and Weimar (1965)
[9] = reference: Palmer et al. (1985)
[10] = reference: Lindqvist and Rodhe (1985)

COP(=S)(OC)Oc1ccc([N+](=O)[O-])c(C)c1 [fenitrothion]
Henry solubility constant Hcp [1]: 2.7

CC(Cc1ccc(C(C)(C)C)cc1)CN1C[C@@H](C)O[C@@H](C)C1 (some centres undefined) [fenpropimorph]
Henry solubility constant Hcp [1]: 0.062

COP(=S)(OC)Oc1ccc(SC)c(C)c1 [fenthion]
Henry solubility constant Hcp [1]: 0.45

CN(C)C(=O)Nc1ccccc1 [fenuron]
Henry solubility constant Hcp [1]: 36

CN(C)C(=O)Nc1cccc(C(F)(F)F)c1 [fluometuron]
Henry solubility constant Hcp (reference: HSDB (2015)): 3800

Fc1ccccc1 [fluorobenzene]
Henry solubility constant Hcp (reference: Brockbank (2013)): 0.0015

O=C(O)CF [fluoroethanoic acid]
Henry solubility constant Hcp [2]: 800 | Henry solubility constant Hcp [3]: 800 | Henry solubility constant Hcp [4]: 800

CF [fluoromethane]
Henry solubility constant Hcp (reference: Brockbank (2013)): 0.00062 | Henry solubility constant Hcp [2]: 0.00061 | Henry solubility constant Hcp [3]: 0.00061 | Henry solubility constant Hcp [5]: 0.00061 | Henry solubility constant Hcp [4]: 0.00061

C[Si](Cn1cncn1)(c1ccc(F)cc1)c1ccc(F)cc1 [flusilazole]
Henry solubility constant Hcp [1]: 27

O=C1c2ccccc2C(=O)N1SC(Cl)(Cl)Cl [folpet]
Henry solubility constant Hcp [1]: 0.026

O=C(Nc1ccccc1)Nc1ccnc(Cl)c1 [forchlorfenuron]
Henry solubility constant Hcp (reference: MacBean (2012b)): 3.5e+06

CCOP(=O)(SC(C)CC)N1CCSC1=O (centres undefined) [fosthiazate-1]
Henry solubility constant Hcp (reference: MacBean (2012b)): 75

[He] [helium]
Henry solubility constant Hcp (reference: Clever (1979a)): 3.8e-06 | Henry solubility constant Hcp (reference: Himmelblau (1960)): 3.7e-06

ClC1=C(Cl)C2(Cl)C3C(Cl)C=CC3C1(Cl)C2(Cl)Cl (centres undefined) [heptachlor]
Henry solubility constant Hcp [1]: 8.8e-05 | Henry solubility constant Hcp (reference: McCarty (1980)): 0.0043 | Henry solubility constant Hcp (reference: Meylan and Howard (1991)): 0.0067

CCCCCCC=O [heptanal]
Henry solubility constant Hcp (reference: Brockbank (2013)): 0.034

CCCCCCC [heptane]
Henry solubility constant Hcp (reference: Brockbank (2013)): 4.4e-06

CCCCCCCc1ccccc1 [heptylbenzene]
Henry solubility constant Hcp (reference: Brockbank (2013)): 0.00027

ClC(Cl)=C(Cl)C(Cl)=C(Cl)Cl [hexachlorobutadiene]
Henry solubility constant Hcp (reference: Brockbank (2013)): 0.00056 | Henry solubility constant Hcp [6]: 0.00083 | Henry solubility constant Hcp (reference: Goldstein (1982)): 0.00098 | Henry solubility constant Hcp (reference: Horvath and Getzen (1999)): 0.00096

ClC1=C(Cl)C(Cl)(Cl)C(Cl)=C1Cl [hexachlorocyclopentadiene]
Henry solubility constant Hcp (reference: Goldstein (1982)): 0.0006

ClC(Cl)(Cl)C(Cl)(Cl)Cl [hexachloroethane]
Henry solubility constant Hcp (reference: Brockbank (2013)): 0.0028 | Henry solubility constant Hcp [2]: 0.0026 | Henry solubility constant Hcp [3]: 0.0027 | Henry solubility constant Hcp (reference: Goldstein (1982)): 0.001

CCCCC(O)(Cn1cncn1)c1ccc(Cl)cc1Cl (centres undefined) [hexaconazole]
Henry solubility constant Hcp [1]: 28

FC(F)(F)C(F)(F)C(F)(F)C(F)(F)C(F)(F)C(F)(F)C(F)(F)F [hexadecafluoroheptane]
Henry solubility constant Hcp (reference: Brockbank (2013)): 3e-09

Fc1c(F)c(F)c(F)c(F)c1F [hexafluorobenzene]
Henry solubility constant Hcp (reference: Brockbank (2013)): 0.0003

CCCCCC [hexane]
Henry solubility constant Hcp (reference: Brockbank (2013)): 5.7e-06

N#CCCCCC#N [hexanedinitrile]
Henry solubility constant Hcp [7]: 1500

CCCCCC#N [hexanenitrile]
Henry solubility constant Hcp [7]: 0.12

CCCCCCOC(C)=O [hexyl ethanoate]
Henry solubility constant Hcp (reference: Brockbank (2013)): 0.02

CCCCCCc1ccccc1 [hexylbenzene]
Henry solubility constant Hcp (reference: Brockbank (2013)): 0.0004

[H] [hydrogen atom]
Henry solubility constant Hcp [2]: 2.6e-06 | Henry solubility constant Hcp [3]: 2.6e-06 | Henry solubility constant Hcp [5]: 2.6e-06 | Henry solubility constant Hcp [4]: 2.6e-06

OO [hydrogen peroxide]
Henry solubility constant Hcp (reference: Brockbank (2013)): 950 | Henry solubility constant Hcp [2]: 860 | Henry solubility constant Hcp [3]: 860 | Henry solubility constant Hcp [6]: 980 | Henry solubility constant Hcp [5]: 760 | Henry solubility constant Hcp [4]: 830

[HH] [hydrogen]
Henry solubility constant Hcp (reference: Himmelblau (1960)): 7.8e-06 | Henry solubility constant Hcp [8]: 7.7e-06 | Henry solubility constant Hcp (reference: Young (1981a)): 7.7e-06

[O-]O [hydroperoxy radical]
Henry solubility constant Hcp (reference: Régimbal and Mozurkewich (1997)): 57

[OH] [hydroxyl radical]
Henry solubility constant Hcp (reference: Jacob (1986)): 0.25

OCOO [hydroxymethyl hydroperoxide]
Henry solubility constant Hcp [2]: 17000 | Henry solubility constant Hcp [3]: 17000 | Henry solubility constant Hcp [5]: 17000 | Henry solubility constant Hcp [4]: 17000

OBr [hypobromous acid]
Henry solubility constant Hcp [2]: > 13 | Henry solubility constant Hcp [3]: > 13

OCl [hypochlorous acid]
Henry solubility constant Hcp [2]: 6.5 | Henry solubility constant Hcp [3]: 6.5 | Henry solubility constant Hcp (reference: Huthwelker et al. (1995)): 6.5 | Henry solubility constant Hcp [5]: 6.5 | Henry solubility constant Hcp [4]: 6.5

OI [hypoiodous acid]
Henry solubility constant Hcp [9]: > 4.1

c1ccc2[nH]ccc2c1 [indole]
Henry solubility constant Hcp (reference: Howard and Meylan (1997)): 15

II [iodine (molecular)]
Henry solubility constant Hcp (reference: Berdnikov and Bazhin (1970)): 0.031 | Henry solubility constant Hcp [9]: 0.03 | Henry solubility constant Hcp (reference: Thompson and Zafiriou (1983)): 0.011

CCI [iodoethane]
Henry solubility constant Hcp (reference: Brockbank (2013)): 0.0015 | Henry solubility constant Hcp [6]: 0.0015

CI [iodomethane]
Henry solubility constant Hcp (reference: Brockbank (2013)): 0.002 | Henry solubility constant Hcp [2]: 0.002 | Henry solubility constant Hcp [3]: 0.002 | Henry solubility constant Hcp (reference: Liss and Slater (1974)): 0.0017 | Henry solubility constant Hcp [5]: 0.002 | Henry solubility constant Hcp [4]: 0.002

CC(C)NC(=O)N1CC(=O)N(c2cc(Cl)cc(Cl)c2)C1=O [iprodione]
Henry solubility constant Hcp [1]: 710

CCOP(=S)(NC(C)C)Oc1ccccc1C(=O)OC(C)C (centres undefined) [isofenphos]
Henry solubility constant Hcp [1]: 1000 | Henry solubility constant Hcp (reference: MacBean (2012b)): 240

CS(=O)(=O)c1cc(C(F)(F)F)ccc1C(=O)c1cnoc1C1CC1 [isoxaflutole]
Henry solubility constant Hcp (reference: MacBean (2012b)): 53000

[Kr] [krypton]
Henry solubility constant Hcp (reference: Clever (1979b)): 2.5e-05

CON(C)C(=O)Nc1ccc(Cl)c(Cl)c1 [linuron]
Henry solubility constant Hcp [1]: 1.8 | Henry solubility constant Hcp (reference: MacBean (2012b)): 5000

CCOC(=O)CC(SP(=S)(OC)OC)C(=O)OCC (centres undefined) [malathion]
Henry solubility constant Hcp [1]: 4.3 | Henry solubility constant Hcp (reference: Brockbank (2013)): 20

[Br][Hg][Br] [mercury dibromide]
Henry solubility constant Hcp (reference: Kanefke (2008)): 960

[Cl][Hg][Cl] [mercury dichloride]
Henry solubility constant Hcp (reference: Kanefke (2008)): 13000 | Henry solubility constant Hcp [10]: 14000 | Henry solubility constant Hcp (reference: Shon et al. (2005)): 240000 | Henry solubility constant Hcp (reference: WHO (1990)): 14000

[Hg+2].[OH-].[OH-] [mercury dihydroxide]
Henry solubility constant Hcp [10]: 130 | Henry solubility constant Hcp (reference: WHO (1990)): 130

Cc1nnc(-c2ccccc2)c(=O)n1N [metamitron]
Henry solubility constant Hcp [1]: 1e+06

Cc1cccc(C)c1N(Cn1cccn1)C(=O)CCl [metazachlor]
Henry solubility constant Hcp [1]: 13

CN [methanamine]
Henry solubility constant Hcp [2]: 0.89 | Henry solubility constant Hcp [3]: 0.89

CS [methanethiol]
Henry solubility constant Hcp [2]: 0.0038 | Henry solubility constant Hcp [3]: 0.0038 | Henry solubility constant Hcp (reference: Goldstein (1982)): 0.0026 | Henry solubility constant Hcp [5]: 0.0038 | Henry solubility constant Hcp [4]: 0.0038

CNC(=O)Oc1cc(C)c(SC)c(C)c1 [methiocarb]
Henry solubility constant Hcp (reference: MacBean (2012b)): 8400

CNC(=O)ON=C(C)SC [methomyl]
Henry solubility constant Hcp [1]: 150

COc1ccccc1 [methoxybenzene]
Henry solubility constant Hcp (reference: Brockbank (2013)): 0.029 | Henry solubility constant Hcp [8]: 0.0023

COC(=O)C(C)C [methyl 2-methylpropanoate]
Henry solubility constant Hcp (reference: Brockbank (2013)): 0.026

COC(=O)c1ccccc1 [methyl benzoate]
Henry solubility constant Hcp (reference: Brockbank (2013)): 0.29

CCCCOC [methyl butyl ether]
Henry solubility constant Hcp (reference: Brockbank (2013)): 0.0066

COC(C)=O [methyl ethanoate]
Henry solubility constant Hcp (reference: Brockbank (2013)): 0.085 | Henry solubility constant Hcp [3]: 0.085

COO [methyl hydroperoxide]
Henry solubility constant Hcp (reference: Brockbank (2013)): 3 | Henry solubility constant Hcp [2]: 3 | Henry solubility constant Hcp [3]: 3 | Henry solubility constant Hcp [5]: 3 | Henry solubility constant Hcp [4]: 3

CN=C=S [methyl isothiocyanate]
Henry solubility constant Hcp [2]: 0.17 | Henry solubility constant Hcp [3]: 0.17 | Henry solubility constant Hcp [4]: 0.17
